Data reported in article PMC5360062, “Comparative insights into the saccharification potentials of a relatively unexplored but robust Penicillium funiculosum glycoside hydrolase 7 cellobiohydrolase” (Biotechnology for Biofuels, 2017).

Molecular target: T1, PfCBH1 (GH7 cellobiohydrolase 1)
T1 construct: natively purified enzyme from the secretome
Assay: inhibition of pNPL hydrolysis by purified enzyme, Michaelis-Menten/Lineweaver-Burk; IC50 […]
Assay type: biochemical, Talaromyces funiculosus (Penicillium funiculosum)

Ki: 760 ± 54 µM
Structure (SMILES): OC[C@H]1O[C@@H](O[C@H]2[C@H](O)[C@@H](O)C(O)O[C@@H]2CO)[C@H](O)[C@@H](O)[C@@H]1O (stereo partly shown) [G2, cellobiose]
